Assay results reported in US9919941B2, “Multiple uses of amine salts for industrial water treatment” (AMSA, Inc., priority 2012, dated 2018).
Values joined by “and” are separate entries in the source; they are usually repeats but may differ in a detail not shown here. Equal values may be shown once.

Assays:
[1] = calcium carbonate scale inhibition (conductometric titration, supersaturation ratio Sr)
Method: To a 100 mL beaker were added 60 mL of HPLC-grade water and 3 mL of 0.1 M calcium chloride. An appropriate amount (0.5-4 mL) of an aqueous solution of the inhibitor compound of Formula (I) to be tested was then added. The solution was magnetically stirred at a constant speed for all experiments. The sample was then titrated with 0.1 M sodium carbonate. After addition of each 0.2 mL aliquot of sodium carbonate titrant, the solution was mixed for 1 min and then the conductivity of the solution measured.
As titrant is added the conductivity increases in a linear fashion. When the supersaturation point is reached, the conductivity decreases and precipitation begins. This is considered the endpoint of the titration. The resulting titration endpoint volumes are used to calculate a relative supersaturation ratio (Sr). This is the ratio of the supersaturation of calcium carbonate in the presence of the compound of Formula (I) being tested to the value of the supersaturation of water without inhibitor (distilled water plus 3 mL of 0.1 M calcium chloride). Thus, compounds with Sr>1 are displaying scale inhibition.
The scale inhibition performance of various compounds of Formula (I) and comparative compounds were compared at the same molar concentration. These compounds were tested at 60 μM concentration except where noted otherwise. Compound numbers are from Table 1.

[2] = mild steel corrosion inhibition, ASTM G31-72 coupon weight loss
Method: (§1) Corrosion inhibition studies of various compounds of Formula (I) were conducted according to ASTM method G31-72 (2004). The following is the general test method.
(§2) Aqueous solutions of the test compound (900 mL) were prepared with city water for mild steel corrosion studies or a dilute sea salt solution (1000 ppm in deionized water) for copper corrosion studies. The solutions were magnetically stirred at a constant rate in a 1 L beaker and three coupons of either mild steel or copper were suspended in each beaker. After 5 days (steel) or 7 days (copper), the coupons were removed and cleaned according to ASTM method G1-03. Average weight loss was determined for each set of three coupons and then converted to corrosion rate in terms of mils per year (mpy).
These tests compare the corrosion inhibition of compounds of Formula (I), namely from Table 1, in the first set of comparisons, Compound A with Compound 13, and Compound B with Compound 1, and with 2-hydroxypropane-1,2,3-tricarboxylic acid. Thus five samples were tested relative to a blank and a standard, (1-hydroxyethan-1,1-diyl)bis(phosphonic acid), after 5 days at 26 μM concentrations. […] Concentrations were 26 μM.
Additional mild steel corrosion tests were performed at 130 μM concentration of compounds of Formula (I) and comparative compounds for 5 days. The next test compared the corrosion inhibition of Compound 8 with 2,3-dihydroxybutanedioic acid and Compound B, and Compound 4 with (1-hydroxyethan-1,1-diyl)bis(phosphonic acid) and Compound B. Also included was Compound 1 for reference. Concentrations in this set were 130 μM.

[3] = copper corrosion inhibition, ASTM G31-72 coupon weight loss
Method: as §1, §2
The first test of copper corrosion inhibition compared Compound A with Compound 13 (from Table 1), 2-hydroxypropane-1,2,3-tricarboxylic acid, and a commercial inhibitor, Na-TAI.

[4] = 5 days, 130 μM, Table 4 (blank 24 mpy)
[5] = 130 μM, Table 5 (blank 12.5 mpy)

In the case of `O=C(O)C(O)C(O)C(O)C(O)C(=O)O` (stereo not drawn) [2,3,4,5-tetrahydroxyhexanedioic acid], the “Sr (supersaturation ratio)” value ([1]; 60 μM) is reported as 1.4.
For `O=C(O)C(O)C(O)C(=O)O` (stereo not drawn) [2,3-Dihydroxybutanedioic acid], the “Sr (supersaturation ratio)” value ([1]; 60 μM) was 1.0 and the “Inhibition relative to blank” value [2, 4] was 20%.
In the case of `O=C(O)CC(O)(CC(=O)O)C(=O)O` [2-hydroxypropane-1,2,3-tricarboxylic acid], the “Sr (supersaturation ratio)” value ([1]; 63 μM) is reported as 1.2, the “Inhibition relative to blank” value ([2]; 5 days, 26 μM, Table 3, 26 µM) is reported as 9.8% and 10% and the “Inhibition relative to blank” value ([3]; 42 μM, Table 7) is reported as 9%. For the same compound, the “Inhibition relative to blank” value ([3]; 7 days, 17 μM, Table 6) was 0%.
In the case of `O=C(O)CCC(CC(=O)O)(C(=O)O)P(=O)(O)O` (stereo not drawn) [2-phosphonobutane-1,2,4-tricarboxylic acid], the “Sr (supersaturation ratio)” value ([1]; 5.9 μM) is reported as 3.0.
For `CC(O)(P(=O)(O)O)P(=O)(O)O` [(1-hydroxyethan-1,1-diyl)bis(phosphonic acid)], the “Sr (supersaturation ratio)” value ([1]; 45 μM) was 2.5, the “Sr (supersaturation ratio)” value ([1]; 60 μM) was 4.4 and the “Inhibition relative to blank” value ([2]; 5 days, 26 μM, Table 3) was 36%. The “Inhibition relative to blank” value [2, 4] was 62%.
In the case of `O=C(O)CCC(=O)O` [Butanedioic acid], the “Sr (supersaturation ratio)” value ([1]; 60 μM) is reported as 1.0.
In the case of `CC(O)(P(=O)(O)O)P(=O)(O)O.CCCCCCCCCCOCCCN` [Compound 4, Salt of Oxyamine (II) and (1-Hydroxyethan-1,1-diyl)bis(phosphonic acid) (1:1 Molar Stoichiometry)], the “Sr (supersaturation ratio)” value ([1]; 60 μM) is reported as 4.3 and the “Inhibition relative to blank” value [2, 4] is reported as 68%.
For `O=C(O)C(=O)O` [Ethanedioic acid], the “Inhibition relative to blank” value [2, 5] was −16%.
With `[Na+].c1ccc2[n-]nnc2c1` [Na-TAI, sodium salt of 1,2,3-triaza-1H-indene] the “Inhibition relative to blank” value ([3]; 7 days, 17 μM, Table 6) was 71%.
For `O=P(O)(O)O` [Trihydroxidooxidophosphorus], the “Inhibition relative to blank” value [2, 5] was 40%.
For “Salt of Oxyamine (II) and 2,3-Dihydroxybutanedioic acid salt (1:1 molar stoichiometry) [Compound 8]”, the “Sr (supersaturation ratio)” value ([1]; 60 μM) was 1.3, the “Sr (supersaturation ratio)” value ([1]; 120 μM) was 1.5 and the “Inhibition relative to blank” value [2, 4] was 44%.
With “Salt of Oxyamine (II) and Butanedioic acid salt (1:1 molar stoichiometry) [Compound 10]” the “Sr (supersaturation ratio)” value ([1]; 60 μM) was 1.0.
For “Salt of Oxyamine (II) and Ethanedioic acid salt (1:1 molar stoichiometry [Compound 2]”, the “Inhibition relative to blank” value [2, 5] was −21%.
For “Salt of Oxyamine (II) and Trihydroxidooxidophosphorus salt (1:1 molar stoichiometry) [Compound 3]”, the “Inhibition relative to blank” value [2, 5] was 55%.
